Data set [1] in a line: LC retention time (Atlantis T3, 5-95% MeOH gradient, 0.1% formic acid); higher = more retained / less polar. In a few lines: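 Retention times were recorded for reference standards (purity ≥ 95%) on a polar reversed-phase C18 column (Atlantis T3, 3 × 150 mm, 3 μm) at 0.3 mL/min. Elution used water and methanol, each with 0.1% formic acid, in a gradient from 5 to 95% methanol over 17.5 min. Detection was by high-resolution tandem mass spectrometry on a QExactive Plus, with positive and negative electrospray in separate runs. Peaks were found and integrated in TraceFinder (5 ppm tolerance, at least three points per peak) and then checked by hand.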

Data set [2] can be described thus: absolute recovery over mixed-bed multilayer solid-phase extraction; higher = better recovery. Conditions: enrichment method: SPE. In a few lines:
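Absolute recovery rests on background-corrected response ratios of pre- versus post-spiked samples, averaged over at least two replicates. Wastewater (100–250 mL, pH 6.5, glass-fibre filtered) was spiked at 1000 ng/L and unfiltered nanopure water (1000 mL) at 200 ng/L, before or after three-layer mixed-bed cartridge extraction or not at all, with exceptions for some classes. Analysis after internal standard addition used liquid chromatography with high-resolution tandem mass spectrometry in both ionisation modes.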

Data set [3] is described as follows: absolute recovery over vacuum-assisted evaporative concentration; higher = better recovery. Particulars: enrichment method: VEC. Put shortly:
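Samples of influent (6 mL), effluent (15 mL) and surface or nanopure water (60 mL) were spiked with standards before or after concentration, or left unspiked, at 200 ng/L (nanopure/surface) or 1000 ng/L (wastewater), adjusted by class and compound. Concentration was by evaporation at 55 °C and 20 mbar to about 0.3 mL, followed by adjustment to 0.4 mL and centrifugation. Internal standards were then added for LC-HRMS/MS analysis. Absolute recovery was (response ratio pre − unspiked)/(post − unspiked) × 100, using averages of ≥ 2 replicates.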

SMILES strings stand for the structures.

From the supplement of paper PMC6470124 come the findings set out here.

`Nc1c(Cl)c(F)nc(OCC(=O)[O-])c1Cl` [Fluroxypyr (free acid)]: the LC retention time in data set [1] was determined as 17.1 min. Further, the absolute recovery in data set [2] (nanopure water) was 97%; in data set [2] (surface water), 95.8%; in data set [2] (wastewater effluent) it was 91.7%; in data set [2] (wastewater influent), 89.2%; in data set [3] (wastewater effluent) it was 104%; in data set [3] (wastewater influent) it was 95.6%.

`COC(=O)c1ccc(CNS(C)(=O)=O)cc1S(=O)(=O)[N-]C(=O)Nc1nc(OC)cc(OC)n1` [Mesosulfuron-methyl] showed an LC retention time in data set [1] of 18 min. Besides, the absolute recovery in data set [2] (nanopure water) was 101%; in data set [2] (surface water) it was 95%; in data set [2] (wastewater effluent) it was 96.2%; in data set [2] (wastewater influent) it was 98.7%; in data set [3] (wastewater effluent), 111%; in data set [3] (wastewater influent) it was 101%.

Molecule `CC12CCC(=O)C=C1CCC1C2C(O)CC2(C)C1CCC2(O)C(=O)CO` (stereo not drawn) [Hydrocortison] registered an LC retention time in data set [1] of 18 min. Also, the absolute recovery worked out at 86.5% in data set [2] (nanopure water); 80.2% in data set [2] (surface water); 80.9% in data set [2] (wastewater effluent); 94% in data set [2] (wastewater influent); 102% in data set [3] (wastewater effluent); 57.5% in data set [3] (wastewater influent).

Take `Cn1c(=O)c2c(ncn2C)n(C)c1=O` [Coffein]: the LC retention time in data set [1] stood at 12.5 min. Further, the absolute recovery in data set [2] (nanopure water) was determined as 96.4%; in data set [2] (wastewater effluent) it was 94.5%; in data set [3] (wastewater effluent), 99.7%.

Molecule `Cc1nnc(-c2ccccc2)c(=O)[n-]1` [Metamitron-Desamino] came in with an LC retention time in data set [1] of 14.5 min. Moreover, the absolute recovery in data set [2] (nanopure water) amounted to 97.9%; in data set [2] (surface water), 97.8%; in data set [2] (wastewater effluent) it was 89.8%; in data set [2] (wastewater influent), 90.1%; in data set [3] (wastewater effluent), 112%; in data set [3] (wastewater influent), 107%.

Consider `Cc1ccc2[nH]nnc2c1` [5-Methyl-Benzotriazol], for which the LC retention time in data set [1] turned out to be 15.4 min. The absolute recovery amounted to 95.7% in data set [2] (nanopure water), 97.5% in data set [2] (wastewater influent), 102% in data set [3] (wastewater effluent) and 100% in data set [3] (wastewater influent).

Regarding `Cc1nc(N(C)C)nc(OC(=O)N(C)C)c1C` [Pirimicarb], the LC retention time in data set [1] turned out to be 14.1 min. The absolute recovery amounted to 99.4% in data set [2] (nanopure water); 94.3% in data set [2] (surface water); 93.5% in data set [2] (wastewater effluent); 94.1% in data set [2] (wastewater influent); 102% in data set [3] (wastewater effluent); 98.7% in data set [3] (wastewater influent).

`CCNc1nc(Cl)nc(NCC)n1` [Simazin] yielded an LC retention time in data set [1] of 17.2 min. Besides, the absolute recovery in data set [2] (nanopure water) was 94.2%; in data set [2] (surface water), 94.4%; in data set [2] (wastewater effluent), 88.3%; in data set [2] (wastewater influent), 94.9%; in data set [3] (wastewater effluent) it was 98.3%; in data set [3] (wastewater influent), 106%.

For the molecule `Cc1ccc(NC(=O)N(C)C)cc1Cl` [Chlortoluron], in data set [1], the LC retention time was 18.2 min. The absolute recovery in data set [2] (nanopure water) was found to be 98%; in data set [2] (surface water), 101%; in data set [2] (wastewater effluent) it was 93%; in data set [2] (wastewater influent), 94.8%; in data set [3] (wastewater effluent) it was 107%; in data set [3] (wastewater influent) it was 102%.

Take `C[N+](C)([O-])CCC(c1ccccc1)c1ccccn1` (stereo not drawn) [Pheniramine-N-oxide]: the LC retention time in data set [1] stood at 11.6 min. Moreover, the absolute recovery turned out to be 94.5% in data set [2] (nanopure water); 93.4% in data set [2] (surface water); 88.3% in data set [2] (wastewater effluent); 89% in data set [2] (wastewater influent); 105% in data set [3] (wastewater effluent); 94.2% in data set [3] (wastewater influent).

With `COc1ccc2c3c1OC1C(=O)CCC4C(C2)[NH+](C)CCC314` (stereo not drawn) [Hydrocodone], the LC retention time in data set [1] was 9.79 min. The absolute recovery in data set [2] (nanopure water) came out at 82.5%; in data set [2] (surface water) it was 89.4%; in data set [2] (wastewater effluent), 93.1%; in data set [2] (wastewater influent), 89.3%; in data set [3] (wastewater effluent) it was 103%; in data set [3] (wastewater influent), 100%.

The molecule `O=C(Cc1ccccc1)NC(=NOCC1CC1)c1c(C(F)(F)F)ccc(F)c1F` [Cyflufenamid] had an LC retention time in data set [1] of 20.9 min. Also, the absolute recovery in data set [2] (nanopure water) was 91.9%; in data set [2] (surface water), 106%; in data set [2] (wastewater effluent), 106%; in data set [2] (wastewater influent), 84.3%; in data set [3] (wastewater effluent), 95.4%; in data set [3] (wastewater influent), 117%.

As for `CC(C)N(Cc1ccccc1)C(=O)C(C)(C)C` [Tebutam], the LC retention time in data set [1] turned out to be 20.5 min. Besides, the absolute recovery came to 85.7% in data set [2] (nanopure water); 88.7% in data set [2] (surface water); 81.3% in data set [2] (wastewater effluent); 89.5% in data set [2] (wastewater influent); 52.3% in data set [3] (wastewater effluent); 46.1% in data set [3] (wastewater influent).

In turn, `COc1nc(C)nc(NC(=O)[N-]S(=O)(=O)c2ccccc2CCC(F)(F)F)n1` [Prosulfuron] displayed an LC retention time in data set [1] of 19.3 min. The absolute recovery came out at 106% in data set [2] (nanopure water); 113% in data set [2] (surface water); 104% in data set [2] (wastewater effluent); 102% in data set [2] (wastewater influent); 108% in data set [3] (wastewater effluent); 102% in data set [3] (wastewater influent).

In turn, `CC(C)(C)C(O)(CCc1ccc(Cl)cc1)Cn1cncn1` (stereo not drawn) [Tebuconazol] came in with an LC retention time in data set [1] of 20.9 min. The absolute recovery in data set [2] (nanopure water) stood at 98.5%; in data set [2] (surface water), 94.7%; in data set [2] (wastewater effluent) it was 96%; in data set [2] (wastewater influent), 94.3%; in data set [3] (wastewater effluent), 106%; in data set [3] (wastewater influent), 99.8%.

`NC(=O)N1c2ccccc2C=Cc2ccccc21` [Carbamazepin] yielded an LC retention time in data set [1] of 17.6 min. The absolute recovery is 99% in data set [2] (nanopure water); 97.8% in data set [2] (surface water); 93.5% in data set [2] (wastewater effluent); 93.2% in data set [2] (wastewater influent); 104% in data set [3] (wastewater effluent); 98.2% in data set [3] (wastewater influent).

In turn, `CC(C)c1ccc(NC(=O)N(C)C)cc1` [Isoproturon] showed an LC retention time in data set [1] of 18.5 min. Also, the absolute recovery is 98.5% in data set [2] (nanopure water); 97.4% in data set [2] (surface water); 97% in data set [2] (wastewater effluent); 92.5% in data set [2] (wastewater influent); 102% in data set [3] (wastewater effluent); 103% in data set [3] (wastewater influent).

As for `Cc1cc(Cl)ccc1OC(C)C(=O)[O-]` (stereo not drawn) [Mecoprop], the LC retention time in data set [1] stood at 20 min. Also, the absolute recovery in data set [2] (nanopure water) is 100%; in data set [2] (surface water), 99.2%; in data set [2] (wastewater effluent) it was 94.9%; in data set [2] (wastewater influent), 94.2%; in data set [3] (wastewater effluent), 101%; in data set [3] (wastewater influent), 99%.

On to `CC1(C)SC(CNC(=O)C([NH3+])c2ccc(O)cc2)[NH2+]C1C(=O)[O-]` (stereo not drawn) [Amoxicillin-EP-Impurity-E], for which the LC retention time in data set [1] was 9.5 min. Also, the absolute recovery in data set [2] (surface water) is 12.2%; in data set [2] (wastewater effluent) it was 17.8%; in data set [2] (wastewater influent), 30.7%; in data set [3] (wastewater effluent) it was 59.2%; in data set [3] (wastewater influent), 96.9%.

In turn, `CCCCc1[nH+]cc(C=C(Cc2cccs2)C(=O)[O-])n1Cc1ccc(C(=O)[O-])cc1` [Eprosartan] returned an LC retention time in data set [1] of 14.6 min. Moreover, the absolute recovery in data set [2] (nanopure water) stood at 97.1%; in data set [2] (surface water), 93.4%; in data set [2] (wastewater effluent), 93.6%; in data set [2] (wastewater influent), 94.2%; in data set [3] (wastewater effluent) it was 103%; in data set [3] (wastewater influent) it was 96.1%.

The molecule `Fc1ccc(C2(Cn3cncn3)OC2c2ccccc2Cl)cc1` (stereo not drawn) [Epoxiconazol] displayed an LC retention time in data set [1] of 20.3 min. Further, the absolute recovery was found to be 100% in data set [2] (nanopure water); 95.4% in data set [2] (surface water); 93.9% in data set [2] (wastewater effluent); 92.7% in data set [2] (wastewater influent); 103% in data set [3] (wastewater effluent); 99.3% in data set [3] (wastewater influent).

Molecule `CC1CC2C3CCC4=CC(=O)C=CC4(C)C3(F)C(O)CC2(C)C1(O)C(=O)CO` (stereo not drawn) [Betamethasone] showed an LC retention time in data set [1] of 18.7 min. In addition, the absolute recovery in data set [2] (nanopure water) came out at 93.8%; in data set [2] (surface water) it was 88.9%; in data set [2] (wastewater effluent) it was 90.5%; in data set [2] (wastewater influent), 98.7%; in data set [3] (wastewater effluent), 104%; in data set [3] (wastewater influent), 102%.
